The values that follow are results of earlier work, collected in patent US20110196036A1, “USE OF BETAINE” (DANISCO A/S, priority 2008, published 2011).

The conditions of the series: pure form; water and lower alcohols.

Consider `C[N+](C)(C)CC(=O)[O-]` [betaine, trimethylglycine], for which the solubility result is “readily soluble in water and lower alcohols”.
